Measured values reported in patent US11213512B2, “Bis-amino acid based compound and use thereof” (THE CURATORS OF THE UNIVERSITY OF MISSOURI, priority 2016, dated 2022).
Where two headings read alike, the source gives them in different places.

Key:
[1] = tested on: E. coli K12; assay: MIC, CLSI/NCCLS broth microdilution; assay type: cell-based, Escherichia coli; details: read-out: Minimal Inhibitory Concentration (MIC) E. coli K12
Procedure: (§1) Two different strains of E. coli (Gram-negative) were used. The laboratory strain of E. coli, K-12 (ATCC Accession No. 700926), was used for preliminary MIC determinations. The tetracycline resistant strain of E. coli (Tet^R) was prepared by transforming competent JM109 E. coli (Promega) with the pBR322 plasmid (Carolina Biologicals) using the manufacturers protocol. This plasmid contains two resistance genes: the tetA gene expresses the tetracycline resistance TetA efflux pump (Sapunaric and Levy, Microbiol. 2005, 151, 2315-2322) and the amp^R gene expresses a β-lactamase enzyme (Bolivar, et al; Gene 1977, 2, 95-113) that cleaves the four membered ring of penicillin derivatives. The resulting E. coli, which we designate Tet^R E. coli, is both tetracycline and ampicillin resistant. The TetA efflux pump belongs to the major facilitator superfamily (MFS), spans the cytoplasmic membrane, and transports tetracycline from the cell cytoplasm to the periplasmic space (Thanassi, et al., J. Bacteriol. 1995, 177, 998-1007). This active efflux utilizes the proton gradient as an energy source (Levy, Antimicrob. Agents Chemother. 1992, 36, 695-703). One Gram-positive strain, S. aureus (ATCC Accession No. 29213), used for MIC study expresses the MFS type NorA efflux pump and is methicillin sensitive. MFS type efflux pumps are clinically relevant for resistance in both Gram-positive and Gram-negative bacteria (Sun, et al., Biochem. Biophys. Res. Commun. 2014, 453, 254-267). A Staphylococcus aureus 1199B strain that overexpresses the NorA efflux pump was also used to conduct checkerboard experiments (see, Example 8 below). This strain of S. aureus 1199B is resistant to both norfloxacin and ethidium bromide.
(§2) K-12 E. coli and S. aureus were acquired from ATCC. The S. aureus strain was used in the BSL-2 facility. K-12 E. coli was grown in L. B. Miller media (Sigma-Aldrich) and S. aureus was grown in cation adjusted MHII media (Sigma-Aldrich). Tet^R E. coli was grown in L. B. Miller media containing 100 μg/mL Ampicillin.
(§3) MIC experiments were performed as described in the Clinical and Laboratory Standards Institute (CLSI) standard microdilution protocols. Bacteria was grown overnight from one CFU in media without antibiotics. Tet^R E. coli was grown in media containing 100 μg/mL Ampicillin. On the day of experiment, bacteria were knocked back to O.D. 600 nm=0.550 in the same media. These exponential phase bacteria were then diluted in antibiotics-free media to get […]. In a 96-well plate either L. B. Miller or MHII media was added followed by serially diluted compounds 1-11, tetracycline, or ampicillin. All the tryptophan based compounds were dissolved in DMSO and the final concentration of DMSO in each well was kept constant at 0.5% (v/v).
(§4) For the combination experiments, first, the BT or control was added to the media in the well followed by the antibiotics. The contents of the well were mixed before adding 20 μL of bacteria to get 4×10^5 CFU/mL per well. The plates were incubated at 37° C., 200 RPM for 24 hours before collecting results on the Biotek Cytation 3 plate reader. No more than three plates were stacked on top of each other at a time. Optical density of the wells was determined at λ=600 nm. Cells alone were considered as 0% inhibition and media alone was considered as 100% inhibition. Any inhibition greater than 80% was considered as the MIC. The results were reproduced three times before reporting.
(§5) All minimum inhibitory concentration (MIC) values for compounds 1-11 were determined according to the methods prescribed by the National Committee for Clinical Laboratory Standards (NCCLS, Methods for Dilution Antimicrobial Susceptibility Tests for Bacteria that grow aerobically; National Committee for Clinical Laboratory Standards 2000, 5th Edition, M7-A5). […]

[2] = tested on: Tet^R E. coli; assay: MIC, CLSI/NCCLS broth microdilution; assay type: cell-based, Escherichia coli; details: 24 h; for MIC: Escherichia coli, read-out: Minimal Inhibitory Concentration (MIC) E. coli Tet^R; for Minimal Inhibitory Concentration (MIC) E. coli Tet^R: >80% growth inhibition, 37° C., substance alone
Procedure: as §1, §2, §3, §4, §5

[3] = tested on: S. aureus (ATCC Accession No. 29213); assay: MIC, CLSI/NCCLS broth microdilution; assay type: cell-based, Staphylococcus aureus; details: read-out: Minimal Inhibitory Concentration (MIC) S. aureus
Procedure: as §1, §2, §3, §4, §5

[4] = tested on: HEK-293 cells; assay: Mammalian cell permeability and vitality, confocal microscopy (propidium iodide / fluorescein diacetate); assay type: cell-based, human
Procedure: To test the permeability of HEK-293 cells, the cells were cultured in growth medium as described above. HEK-293 (90% confluent) were then seeded in a 96-well plate to get 30,000 cells/well. After 24 hours of incubation at 37° C. and 5% CO2, the spent media was replaced with media (DMEM and 10% FBS) containing compound 2 at either 20 μM or 80 μM. […] Triton X-100 at 0.1%—by volume (1670 μM) and DMSO 0.5% (v/v) were also used as controls. After 2 hours of incubation, spent media was replaced with PBS containing propidium iodide (30 μM) and fluorescein diacetate (60 μM) and incubated at 37° C. and 5% CO2. After 2 hour of incubation, the spend media was replaced with fresh PBS and the cells were observed under Zeiss LSM 700 confocal microscope. The images were reported without any alterations. The gain and the intensity in all the images were kept constant.
A compound that inhibits bacterial growth and penetrates into the microbe's cytosol may also penetrate into mammalian cells. A similar microscopic study was conducted with the human embryonic kidney (HEK-293) cell line. In this case, only compound 2 was studied. […] The microscopic study was therefore conducted at 20 μM, a value well below any inhibitory concentration, and at 80 μM, a concentration above all three MIC values. The 80 μM concentration was used to confirm the […] of 2 and to establish the lack of serum inhibition.

[5] = tested on: Tet^R E. coli; assay: Membrane permeability and viability, confocal microscopy (propidium iodide / fluorescein diacetate); assay type: cell-based, Escherichia coli; details: 0.1% (~1,670 μM) control detergent
Procedure: To test the membrane permeability of the Tet^R E. coli, the bacteria was first grown overnight from one CFU in media containing 100 μg/mL Ampicillin at 37° C. and 200 RPM. Tet^R E. coli was then knocked back to O.D. 600 nm=0.550 before use. In a sterile test tube, cells were added followed by either compounds 2 or 10 at half-MIC concentrations and incubated at 37° C. and 200 RPM. The concentration of DMSO was kept constant at 0.5% —by volume in each case. After 30 minutes of incubation, the cells were washed by centrifugation at 3000×g for 5 minutes and re-suspended in sterile phosphate buffered saline (PBS). Propidium iodide (30 μM, Thermo-Fischer) and fluorescein diacetate (60 μM, Sigma-Aldrich) were added to the Tet^R E. coli cells in the PBS, mixed by vortexing and incubated at 37° C. and 200 RPM. After 30 minutes, the cells were washed again by centrifugation at 3000×g for 5 minutes. The pellet was suspended in a fresh PBS, loaded onto a clean glass slide, covered with a cover slip and observed under Zeiss LSM 700 confocal microscope.
The study was designed to assess the membrane permeability and viability of the E. coli in the presence of BTs 2 and 10. The three panels in FIG. 6 show the bright field (BF) microscopic images (top row), the result when fluorescein diacetate (FDA) is present (middle row), and the presence of propidium iodide (PI, bottom row), if any. […] When it does, it intercalates in DNA, which leads to enhanced fluorescence. Fluorescein diacetate is incorporated into the cells during growth, but is not fluorescent. If the organism is or remains vital, the diester will be hydrolyzed and fluorescein will be observed by its fluorescence emission.
Controls for the permeability/viability assay were included for E. coli in the presence of a final concentration of 0.5% (v/v) DMSO (the vehicle for administration of BTs), and a final concentration of 0.1% […] Triton X-100. […] Thus, less than or equal to 0.5% DMSO (v/v) was always used; the control is shown in the second column. Triton X-100 is a potent detergent, which was used at 0.1% or ˜1,670 μM.

[6] = Staphylococcus aureus, ATCC29213, 24 h
[7] = >80% growth inhibition, 24 h, 37° C.

Molecule | melting point | MIC ([1]; Escherichia coli, K12, 24 h) [µM] | MIC [2] [µM] | MIC [3, 6] [µM] | MIC [1, 7] [µM] | Minimal Inhibitory Concentration (MIC) E. coli Tet^R [2] [µM] | MIC [3, 7] [µM] | propidium iodide penetration (membrane permeability) [4] | viability (fluorescein diacetate fluorescence) [5] | MIC ([1]; Escherichia coli, K12, >80% growth inhibition, 24 h, 37° C.) [µM]
O=C(CCc1c[nH]c2ccccc12)Nc1cccc(NC(=O)CCc2c[nH]c3ccccc23)c1 [Compound 4, N,N′-(1,3-Phenylene)bis(3-(1H-indol-3-yl)propanamide)] | 154 to 156 °C | > 128 | > 128 | > 128 |  |  |  |  |  | 
Cl.Cl.N[C@H](Cc1c[nH]c2ccccc12)C(=O)NCCCCNC(=O)[C@@H](N)Cc1c[nH]c2ccccc12 [Compound 8, (S)-1-((4-((R)-2-Ammonio-3-(1H-indol-3-yl)propanamido)butyl)amino)-3-(1H-indol-3-yl)-1-oxopropan-2-aminium chloride] | 204 °C (dec.) | > 128 | > 128 | > 128 |  |  |  |  |  | 
Cl.N[C@@H](Cc1c[nH]c2ccccc12)C(=O)Nc1ccccc1 [Compound 11, (S)-3-(1H-Indol-3-yl)-1-oxo-1-(phenylamino)propan-2-aminium chloride] |  | > 128 | > 128 | > 128 | >128 | >128 | >128 |  |  | 
Triton X-100 [reference compound] |  |  |  |  |  |  |  | strong signal from propidium iodide | essentially all the cells were killed | 
Cl.Cl.N[C@@H](Cc1c[nH]c2ccccc12)C(=O)NCCCCCCNC(=O)[C@@H](N)Cc1c[nH]c2ccccc12 [Compound 9, (2S,2′S)-1,1′-(Hexane-1,6-diylbis(azanediyl))bis(3-(1H-indol-3-yl)-1-oxopropan-2-aminium) chloride] | 193 °C (dec.) | > 128 | 128 | > 128 |  |  |  |  |  | 
Cl.Cl.NCC(=O)Nc1cccc(NC(=O)CN)c1 [Compound 1, 2,2′-(1,3-Phenylenebis(azanediyl))bis(2-oxoethanaminium) chloride] | 310 °C (dec.) | > 128 | > 128 | > 128 | >128 | >128 | >128 |  |  | 
CC1(C)S[C@@H]2[C@H](NC(=O)[C@H](N)c3ccccc3)C(=O)N2[C@H]1C(=O)O [ampicillin, reference compound] |  |  | > 1000 |  |  |  |  |  |  | 
CN(C)[C@@H]1C(O)=C(C(N)=O)C(=O)[C@@]2(O)C(O)=C3C(=O)c4c(O)cccc4[C@@](C)(O)[C@H]3C[C@@H]12 [tetracycline, reference compound] |  |  | 900 ± 100 |  |  | 900 |  |  |  | ~3
